In patent US11629143B2, “HipK4 inhibitors and uses thereof” (Vibliome Therapeutics, LLC, priority 2020, dated 2023):
Each block holds one molecule with its values, some of them ahead of it.

Assays:
Test in all cases: Kinase panel (mobility shift)
Type in all cases: biochemical
TAOK3 = target: T1, TAOK3 (Homo sapiens, UniProt Q9H2K8)
T1 sequence (Q9H2K8 1-898): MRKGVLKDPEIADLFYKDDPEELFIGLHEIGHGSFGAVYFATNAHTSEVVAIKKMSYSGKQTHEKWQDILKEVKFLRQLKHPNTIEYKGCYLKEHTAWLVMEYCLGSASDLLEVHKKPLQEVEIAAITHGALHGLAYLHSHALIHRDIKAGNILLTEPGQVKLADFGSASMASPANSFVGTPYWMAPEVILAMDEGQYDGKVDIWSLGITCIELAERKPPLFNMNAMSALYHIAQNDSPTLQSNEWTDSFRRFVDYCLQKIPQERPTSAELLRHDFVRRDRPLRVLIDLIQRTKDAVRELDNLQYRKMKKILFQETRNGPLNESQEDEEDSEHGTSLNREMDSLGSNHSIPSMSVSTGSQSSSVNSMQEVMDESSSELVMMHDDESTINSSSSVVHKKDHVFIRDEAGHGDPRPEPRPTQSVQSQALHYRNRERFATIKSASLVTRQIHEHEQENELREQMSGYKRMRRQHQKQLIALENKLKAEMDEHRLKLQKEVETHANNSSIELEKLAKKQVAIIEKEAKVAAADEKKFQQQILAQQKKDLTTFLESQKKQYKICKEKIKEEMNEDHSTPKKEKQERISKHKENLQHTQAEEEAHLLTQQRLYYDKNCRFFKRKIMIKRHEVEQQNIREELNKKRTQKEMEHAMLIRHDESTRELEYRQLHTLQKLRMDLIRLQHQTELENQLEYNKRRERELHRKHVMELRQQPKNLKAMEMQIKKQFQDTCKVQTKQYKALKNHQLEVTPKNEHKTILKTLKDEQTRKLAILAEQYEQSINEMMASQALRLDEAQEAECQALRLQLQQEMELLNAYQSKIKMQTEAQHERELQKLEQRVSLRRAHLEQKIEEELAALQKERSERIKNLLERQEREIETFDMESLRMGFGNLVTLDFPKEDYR
Method in brief: (§1)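 Compound at 5 um + kinase + fluor-labeled substrate, standardized mix; rxn stopped; electrophoretic separation of product/substrate on chip; activity = product vs substrate peak fluorescence. Bins A ≥95%, B 90-94%, C 80-89%.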

EPH-B4 = target: T2, EPH-B4 (Homo sapiens, UniProt P54760)
T2 sequence (P54760 16-987): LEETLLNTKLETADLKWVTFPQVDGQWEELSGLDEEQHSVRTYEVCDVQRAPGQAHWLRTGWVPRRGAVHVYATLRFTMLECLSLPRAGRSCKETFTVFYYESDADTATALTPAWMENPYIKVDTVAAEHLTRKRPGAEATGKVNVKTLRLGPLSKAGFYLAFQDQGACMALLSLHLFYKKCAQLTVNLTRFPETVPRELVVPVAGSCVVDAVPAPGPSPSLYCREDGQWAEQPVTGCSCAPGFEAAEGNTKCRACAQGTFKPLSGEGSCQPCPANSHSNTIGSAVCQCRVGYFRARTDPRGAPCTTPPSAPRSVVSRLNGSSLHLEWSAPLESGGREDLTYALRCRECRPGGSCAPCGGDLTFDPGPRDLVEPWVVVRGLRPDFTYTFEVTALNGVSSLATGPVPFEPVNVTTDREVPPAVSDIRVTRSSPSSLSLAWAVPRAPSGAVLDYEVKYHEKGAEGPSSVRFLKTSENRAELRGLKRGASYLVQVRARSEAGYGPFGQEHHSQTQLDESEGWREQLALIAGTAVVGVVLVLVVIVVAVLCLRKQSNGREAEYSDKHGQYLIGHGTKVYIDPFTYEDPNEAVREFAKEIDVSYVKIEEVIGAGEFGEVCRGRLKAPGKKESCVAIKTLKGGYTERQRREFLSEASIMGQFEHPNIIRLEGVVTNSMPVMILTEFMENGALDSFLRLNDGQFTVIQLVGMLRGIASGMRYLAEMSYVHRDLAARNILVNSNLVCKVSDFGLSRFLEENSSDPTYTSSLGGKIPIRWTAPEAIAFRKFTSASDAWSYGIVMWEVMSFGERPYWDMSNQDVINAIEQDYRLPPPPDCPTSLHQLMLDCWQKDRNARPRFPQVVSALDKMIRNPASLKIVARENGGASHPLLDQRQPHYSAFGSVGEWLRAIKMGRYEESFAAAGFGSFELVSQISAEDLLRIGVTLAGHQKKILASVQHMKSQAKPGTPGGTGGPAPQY
Method in brief: as §1

DDR2 = target: T3, DDR2 (Homo sapiens, UniProt Q16832)
T3 sequence (Q16832 22-855): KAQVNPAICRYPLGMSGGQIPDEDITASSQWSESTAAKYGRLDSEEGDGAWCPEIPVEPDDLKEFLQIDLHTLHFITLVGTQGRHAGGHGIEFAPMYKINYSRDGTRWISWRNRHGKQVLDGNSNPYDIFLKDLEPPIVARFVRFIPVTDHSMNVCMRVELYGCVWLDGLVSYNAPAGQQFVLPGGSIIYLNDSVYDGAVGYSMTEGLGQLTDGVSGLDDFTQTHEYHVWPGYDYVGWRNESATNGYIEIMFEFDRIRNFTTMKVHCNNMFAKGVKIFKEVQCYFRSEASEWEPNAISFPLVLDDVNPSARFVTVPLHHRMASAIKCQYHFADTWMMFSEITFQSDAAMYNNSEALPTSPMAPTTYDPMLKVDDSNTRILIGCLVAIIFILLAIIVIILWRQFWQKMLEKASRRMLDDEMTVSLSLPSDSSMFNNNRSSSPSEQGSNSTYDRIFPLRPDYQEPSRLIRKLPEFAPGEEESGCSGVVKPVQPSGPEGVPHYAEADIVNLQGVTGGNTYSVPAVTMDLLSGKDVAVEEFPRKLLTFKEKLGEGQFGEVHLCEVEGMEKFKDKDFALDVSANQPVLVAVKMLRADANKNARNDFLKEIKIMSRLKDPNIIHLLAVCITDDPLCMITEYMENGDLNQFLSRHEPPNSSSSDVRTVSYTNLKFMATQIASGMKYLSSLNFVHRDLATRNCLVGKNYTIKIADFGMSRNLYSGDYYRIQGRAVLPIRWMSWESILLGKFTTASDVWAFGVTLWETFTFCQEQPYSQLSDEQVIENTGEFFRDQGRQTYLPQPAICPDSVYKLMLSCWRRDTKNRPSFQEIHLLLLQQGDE
Method in brief: as §1

Compound: [2H]C([2H])([2H])NC(=O)c1cc(Oc2ccc(NC(=O)c3nc(SC)oc3-c3ccc(F)c(F)c3)cc2F)ccn1 [Compound 33]
inhibition at 5 µM (TAOK3): 50 to 79%
inhibition at 5 µM (EPH-B4): < 50%
inhibition at 5 µM (DDR2): 80 to 89%

Compound: CNC(=O)c1cc(Oc2ccc(NC(=O)c3nc(SC)oc3-c3ccc(F)c(F)c3)cc2)ccn1 [Compound 4]
inhibition at 5 µM (TAOK3): 50 to 79%
inhibition at 5 µM (EPH-B4): < 50%
inhibition at 5 µM (DDR2): 80 to 89%

Compound: CNC(=O)c1cc(Oc2ccc(NC(=O)c3nc(C4CC4)oc3-c3ccc(F)cc3)cc2F)ccn1 [Compound 26]
inhibition at 5 µM (TAOK3): 80 to 89%
inhibition at 5 µM (EPH-B4): 80 to 89%
inhibition at 5 µM (DDR2): 80 to 89%

Compound: CNC(=O)c1cc(Oc2ccc(NC(=O)c3nc(NC)oc3-c3ccc(F)s3)cc2F)ccn1 [Compound 17]
inhibition at 5 µM (TAOK3): < 50%
inhibition at 5 µM (EPH-B4): < 50%
inhibition at 5 µM (DDR2): 50 to 79%

Compound: CSc1nc(C(=O)Nc2ccc(Oc3ccnc(C(=O)NC4CNC4)c3)c(F)c2)c(-c2ccc(F)s2)o1 [Compound 27]
inhibition at 5 µM (TAOK3): < 50%
inhibition at 5 µM (EPH-B4): < 50%
inhibition at 5 µM (DDR2): < 50%

More lines, now with the values ahead:

inhibition at 5 µM (TAOK3): < 50%
inhibition at 5 µM (EPH-B4): < 50%
inhibition at 5 µM (DDR2): 50 to 79%
Compound: CSc1nc(C(=O)Nc2ccc(Oc3ccnc(C(=O)NC4COC4)c3)c(F)c2)c(-c2ccc(F)cc2)o1 [Compound 31]

inhibition at 5 µM (TAOK3): < 50%
inhibition at 5 µM (EPH-B4): 50 to 79%
inhibition at 5 µM (DDR2): 90 to 94%
Compound: CNC(=O)c1cc(Oc2ccc(NC(=O)c3nc(OC)oc3-c3ccc(F)cc3)cc2F)ccn1 [Compound 15]

inhibition at 5 µM (TAOK3): < 50%
inhibition at 5 µM (EPH-B4): < 50%
inhibition at 5 µM (DDR2): 50 to 79%
Compound: CNC(=O)c1cc(Oc2ccc(NC(=O)c3nc(OC)oc3-c3ccc(F)s3)cc2F)ccn1 [Compound 25]

inhibition at 5 µM (TAOK3): < 50%
inhibition at 5 µM (EPH-B4): < 50%
inhibition at 5 µM (DDR2): 80 to 89%
Compound: CNC(=O)c1cc(Oc2ccc(NC(=O)c3nc(SC)oc3-c3ccc(OC)cc3)cc2)ccn1 [Compound 7]
